From PubChem BioAssay (NCI) come the findings set out here.

What all share (test): inhibition of tumour cell growth, NCI panel, 48 h
Assay [1] relates to UO-31 renal.
Assay [2] concerns SNB-75 CNS.
For assay [3], the system named is NCI-H23 lung.
In assay [4] the test system is ACHN renal.
Assay [5] has as its system UACC-257 melanoma.
The subject of assay [6] is HCT-15 colon.
Assay [7] deals with MDA-MB-231 breast.
The test system of assay [8] is SK-MEL-2 melanoma.
In assay [9] the test system is MDA-N.
Assay [10] has as its system RXF 393 renal.
The subject of assay [11] is NCI/ADR-RES ovarian.
In assay [12] the test system is EKVX NSCLC.
Assay [13] concerns HCT-116 colon.

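Results reflect a 48-hour exposure of cells in 96-well plates to compound at five concentrations. TGI denotes the concentration required for complete inhibition of growth.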

Consider `Cc1nc2cc(C(F)(F)F)ccc2[nH]c1=O`, for which the TGI in assay [1], in [2], in assay [3], in [4], in assay [5] and in [6] was greater than 100 µM each time. The TGI in [7], in assay [8], in assay [9], in assay [10], in [11] and in assay [12] was greater than 100 µM throughout. In assay [13], this compound registered a TGI greater than 100 µM.
As to `Cc1nc(Cl)c(CBr)c(Cl)n1`, the TGI in assay [1] was 3.2 µM; in [2], 2.26 µM; in assay [3] it was 3.69 µM; in [4], 3.15 µM; in assay [5], 3.37 µM; in [6], 4.37 µM. Besides, the TGI in [7] amounted to 3.67 µM; in assay [8], 4.68 µM; in [9] it was 2.97 µM; in assay [10] it was 5.03 µM; in assay [11], 7.8 µM; in assay [12], 11.8 µM. Moreover, the TGI in assay [13] came to 1.19 µM.
As for `N#CSCc1cccc(Nc2cc(=O)[nH]c(=O)[nH]2)c1`, the TGI in [1], in assay [2], in assay [3], in [4], in assay [5] and in assay [6] was greater than 100 µM throughout. Moreover, the TGI in [7], in [8], in assay [9], in assay [10], in assay [11] and in assay [12] was greater than 100 µM in each case. The same compound returned a TGI in assay [13] greater than 100 µM.
With `COC(c1ccc(C(C)(C)C)cc1)(c1ccc(C(C)(C)C)cc1)c1cc(C(O)(c2cc(C(OC)(c3ccc(C(C)(C)C)cc3)c3ccc(C(C)(C)C)cc3)c(C)cc2C)c2cc(C(OC)(c3ccc(C(C)(C)C)cc3)c3ccc(C(C)(C)C)cc3)c(C)cc2C)c(C)cc1C`, the TGI in [1], in assay [2], in assay [3], in assay [5], in assay [6] and in assay [7] was greater than 100 µM in each case. Besides, the TGI in assay [8], in assay [9], in [10], in assay [11], in [12] and in assay [13] was greater than 100 µM each time.
For `COc1ccc2c(c1)C(=O)c1ccccc1C2`, the TGI is greater than 100 µM in [1]; 63.5 µM in assay [2]; greater than 100 µM in [3]; greater than 100 µM in assay [4]; greater than 100 µM in assay [5]; greater than 100 µM in assay [6]. In addition, the TGI in [7] was 76.3 µM; in assay [8], greater than 100 µM; in [9], greater than 100 µM; in assay [10] it was 28.4 µM; in assay [11] it was greater than 100 µM; in assay [12] it was greater than 100 µM. In assay [13], this compound registered a TGI greater than 100 µM.
Regarding `O=c1nc2c(c(-c3cccc(Cl)c3)[nH]1)COC/C2=C\c1cccc(Cl)c1`, the TGI in assay [1], in assay [2], in assay [3], in assay [4], in assay [5] and in [6] was greater than 100 µM in each case. Besides, the TGI in [7], in assay [8], in assay [9], in assay [10], in assay [11] and in [12] was greater than 100 µM in each case. Also, the TGI in assay [13] was greater than 100 µM.
Take `CC(C)/C(Cl)=N\OC(=O)NNc1ccccc1`: the TGI in assay [2] is greater than 100 µM; in assay [3], greater than 100 µM; in assay [4], 34.1 µM; in assay [5], greater than 100 µM; in assay [6], greater than 53.7 µM; in assay [7] it was greater than 94.2 µM. In addition, the TGI is greater than 100 µM in [8]; greater than 100 µM in [9]; greater than 100 µM in assay [10]; greater than 100 µM in [11]; 37.3 µM in [12]; greater than 100 µM in assay [13].
In the case of `CC1=CC=CC(C)(C)CC1(O[Si](C)(C)C)C(F)(F)F` (stereo not drawn), the TGI in assay [1], in [2], in assay [3], in assay [4], in [5] and in assay [6] was greater than 100 µM in each case. In addition, the TGI in [7], in assay [8], in assay [9], in assay [10], in [11] and in assay [12] was greater than 100 µM throughout. The TGI in assay [13] was greater than 100 µM.
`CN(O)C(=O)Cc1ccc(OCc2cccc(Cl)c2)cc1`: the TGI in assay [1], in assay [2], in assay [3], in [4], in [5] and in assay [6] was greater than 100 µM in each case. The TGI in assay [7], in assay [8], in assay [9], in [10], in assay [11] and in [12] was greater than 100 µM throughout. The same compound showed a TGI in [13] greater than 100 µM.
`CN(C)c1ccc(/C(Br)=C2\OC(=O)c3ccccc32)cc1`: the TGI in assay [1], in [2], in assay [3], in assay [4], in [5] and in assay [6] was greater than 100 µM throughout. Moreover, the TGI in [7], in [8], in assay [9], in [11], in assay [12] and in [13] was greater than 100 µM each time.
In the case of `CN1C(=O)CN(NC(=O)C2=C(O)c3ccc(Br)cc3S(=O)(=O)N2)C1=S`, the TGI in assay [1], in assay [3], in assay [4], in assay [5], in assay [6] and in [7] was greater than 100 µM throughout. Besides, the TGI in assay [8], in assay [9], in [10], in assay [11], in [12] and in assay [13] was greater than 100 µM each time.
In the case of `O=C1OC[C@@H]2Cc3c([nH]c4ccccc34)[C@@H](c3ccc(O)cc3)N12`, the TGI was greater than 100 µM in assay [1]; 69.4 µM in assay [2]; 54.6 µM in assay [3]; greater than 74.2 µM in assay [4]; 72.2 µM in [5]; greater than 100 µM in [6]. Besides, the TGI in assay [7] is greater than 83.4 µM; in assay [8] it was 67.6 µM; in assay [9], greater than 100 µM; in assay [10] it was 64.3 µM; in assay [11] it was greater than 100 µM; in assay [12], greater than 100 µM. The compound also had a TGI in assay [13] of 35 µM.
`Nc1ncnc2c1ncn2C(=O)NC12CC3CC(CC(C3)C1)C2`: the TGI in assay [1], in assay [2], in [3], in assay [4], in [5] and in [6] was greater than 100 µM throughout. The TGI in assay [7], in assay [8], in assay [9], in assay [10], in assay [11] and in assay [12] was greater than 100 µM in each case. In assay [13], this compound registered a TGI greater than 100 µM.
Regarding `CC1=C2c3ccccc3N(C(=O)/C=C/C(=O)O)[C@H]2[C@H]2C(=O)OC(=O)[C@H]2C1`, the TGI in [1], in assay [2], in assay [3], in [4], in assay [6] and in assay [7] was greater than 10 µM in each case. Besides, the TGI in assay [8], in [9], in assay [10], in assay [11], in assay [12] and in [13] was greater than 10 µM throughout.
`CC1=CC(=O)N(n2c(C)n[nH]c2=O)C1=O`: the TGI in assay [1], in assay [3], in [4], in assay [5], in [6] and in [7] was greater than 100 µM throughout. Besides, the TGI in assay [8], in [9], in assay [10], in [11], in assay [12] and in assay [13] was greater than 100 µM in each case.
As for `CCN(CCCN(CC)C(=O)N[C@@H](Cc1ccccc1)C(=O)NC)C(=O)N[C@@H](Cc1ccccc1)C(=O)NC`, the TGI in assay [1], in assay [3], in [4], in [5], in [6] and in assay [7] was greater than 100 µM each time. In addition, the TGI in [8], in [9], in [10], in assay [11], in assay [12] and in assay [13] was greater than 100 µM in each case.
In the case of `CCOP(=O)(OCC)/C(F)=C/c1ccccc1`, the TGI in assay [1], in assay [2], in assay [3], in [4], in assay [5] and in [6] was greater than 100 µM throughout. The TGI in assay [7], in assay [8], in assay [9], in [10], in assay [11] and in [12] was greater than 100 µM throughout. This compound yielded a TGI in assay [13] greater than 100 µM.
With `c1ccc2c(c1)CCCN1CCc3ccccc3C21` (stereo not drawn), the TGI in assay [1], in [2], in [3], in [4], in [5] and in assay [6] was greater than 100 µM throughout. In addition, the TGI in assay [7] is greater than 100 µM; in assay [8], greater than 100 µM; in assay [9] it was 70.4 µM; in assay [11], greater than 100 µM; in assay [12], greater than 100 µM; in [13], greater than 100 µM.
Regarding `CO/N=C1/c2sccc2[C@H](NC(=O)CNC(=O)OC(C)(C)C)[C@@H]1O`, the TGI in [1], in assay [2], in assay [3], in [5], in assay [6] and in [7] was greater than 100 µM throughout. In addition, the TGI in [8], in assay [9], in assay [10], in [11], in [12] and in assay [13] was greater than 100 µM in each case.
Regarding `CCOC(=O)c1c(SCCN2CCCC2)n(-c2ccccc2)c(=S)n(-c2ccccc2)c1=O`, the TGI in assay [2] amounted to 19.5 µM; in [3], 27.4 µM; in [4], 3.17 µM; in assay [5], 3.34 µM; in assay [6] it was 5.54 µM; in assay [7], 4.4 µM. Further, the TGI in assay [8] is 28.4 µM; in assay [9], 6.01 µM; in assay [10] it was 3.36 µM; in assay [11], greater than 92 µM; in assay [12] it was 27 µM; in assay [13], 8.39 µM.
`O=C(/C=C/c1cccs1)c1ccc(Cl)cc1`: the TGI in assay [1], in assay [2], in assay [3], in assay [4], in [5] and in [6] was greater than 100 µM throughout. In addition, the TGI in [7], in assay [8], in [9], in assay [11], in assay [12] and in [13] was greater than 100 µM throughout.
Consider `CC1CC(C#N)=C2NCCCCN2C1=O` (stereo not drawn), for which the TGI in assay [1], in assay [2], in assay [3], in assay [5], in assay [6] and in assay [7] was greater than 100 µM in each case. The TGI in [8], in assay [9], in assay [10], in assay [11] and in assay [12] was greater than 100 µM throughout.
